From US9700637B2, “Reaction-based fluorescent probes for detecting zinc” (Massachusetts Institute of Technology, priority 2013, dated 2017)

What was measured:
[1] = Charge of predominate species in solution at physiological pH; type: physicochemical; details: physiological pH = 7.4
HeLa cells = assay: Live cell fluorescence imaging: localization, co-localization and uptake; type: cell-based; details: fluorescence microscopy, live HeLa cells (Table 1)
Procedure: FIG. 6 depicts live cell imaging of HeLa cells. 500 nM mitotracker Red was bath-applied along with 1 μM DA-ZP1-TPP for 30 min at 37° C. and 5% CO2. After exposure to 25 μM 1:2 zinc:pyrithione, fluorescent images were acquired and the co-localization of the two sensors was assessed. The calculated Pearson's correlation coefficient (r) was r=0.581±0.097 (n=9), which represents the average of 9 ROIs over three independent plates.
FIG. 14 depicts live cell imaging of HeLa cells. 1 μM Lysotracker Red was bath-applied along with 2 μM ZP1-TPP. The calculated Pearson's correlation coefficient (r) was r=0.45±0.15, which represents the average of 9 ROIs over three independent plates.
FIG. 24 depicts fluorescence images of live HeLa cells. HeLa cells were pretreated with a 1 μM solution of DA-ZP1-TPP in dye- and serum-free medium for 30 min (37° C., 5% CO2). […] The signal from MitoTracker Red (c) correlates well with the signal from the zinc-bound sensor (d). Pearson's r=0.64±0.1 (n=18).
FIG. 27 depicts deconvoluted fluorescence microscopy images of live HeLa cells pretreated with ZP1-R9 (5 μM) or DA-ZP1-R9 (2.5 μM) and the indicated organelle stain. Top, ZP1-R9: (a) Differential interference contrast (DIC) image, (b) signal from ZP1-R9, (c) signal from LysoTracker Red, (d) overlay of (b) and (c). Pearson's r=0.42±0.16 (n=8). Bottom, DA-ZP1-R9: (e) DIC, (f) signal from DA-ZP1-R9 after treatment with 25 μM ZnPT, (g) signal from Hoechst 33258, (h) overlay of (f) and (g). Scale bar=25 μm.
FIG. 29 depicts deconvoluted fluorescence microscopy images of live HeLa cells pretreated with 1 μM DA-ZP1-R9 and 100 nM Dextran Red. (a) Differential interference contrast (DIC), (b) signal from DA-ZP1-R9 after addition of 25 μM ZnPT (c) signal from Dextran Red, (d) overlay of (b) and (c). Pearson's r=0.55±0.12 (n=11). Scale bar=25 μm.
FIG. 31 depicts deconvoluted fluorescence microscopy images of ZP1-(Fxr)3 and DA-ZP1-r(Fxr)3 in live HeLa cells. Top, cells pretreated with medium containing 2.5 μM of ZP1-(Fxr)3: (a) Differential interference contrast (DIC) image, (b) signal from ZP1-(Fxr)3, (c) signal from Dextran Red, (d) overlay of (b) and (c). Pearson's r=0.71±0.07. Bottom, cells pretreated with 1 μM DA-ZP1-r(Fxr)3: (e) DIC, (f) signal from DA-ZP1-r(Fx)3 after treatment with 25 μM ZnPT, (g) signal from MitoTracker Red, (h) overlay of (f) and (g). Pearson's r=0.41±0.09. Scale bar=25 μm.
FIG. 33 depicts deconvoluted fluorescence microscopy images of DCF-r(Fxr)3 and DA-DCF-r(Fxr)3 in live HeLa cells. Top, cells pretreated with 5 μM DCF-r(Fxr)3 and 500 nM MitoTracker Red for 30 min. (a) differential contrast image (DIC), (b) signal from DCF-r(Fxr)3, (c) signal from MitoTracker Red. Bottom, cells pretreated with 5 μM DA-DCF-r(Fxr)3 and 500 nM MitoTracker Red for 30 min. (d) DIC, (e) signal from DCF-r(Fxr)3, (f) signal from MitoTracker Red. The global Pearson's r=0.57±0.16 (n=37). Cells with high levels of DA-DCF-r(Fxr)3 (e, red outline) have a higher Pearson's r=0.83±0.08 (n=10). Scale bar=25 μm.
We used HeLa cells as a model system to evaluate the ability of DA-ZP1-TPP to target mitochondria and respond to changes in intracellular zinc levels. […] Over a two-hour period, the fluorescence intensity from the sensor remained constant, implying that the acetylated form is stable against intracellular esterases (FIG. 24e). […] Addition of 100 μM TPEN attenuated the fluorescence signal by ˜2.4-fold (FIG. 24f). […]

[2] = Octanol/aqueous buffer partition coefficient (modified shake-flask); type: physicochemical; details: octanol/water, buffered at pH 7 with 10 mM Tris
Text: To understand better the limitations of TPP in directing fluorophores to mitochondria, we prepared two additional TPP-derivatives, one based on 6-carboxyfluorescein (FL-TPP) and one on coumarin 343 (C343-TPP). […] To test this hypothesis, we conducted live cell fluorescence imaging experiments with FL-TPP. […] Not only did FL-TPP fail to accumulate in mitochondria, it was cell-impermeable under our imaging conditions. In contrast, the cationic C343-TPP strongly colocalized with MitoTracker Red in live HeLa cells (Pearson's r=0.72±0.02). To quantify the effect of hydrophobicity in mitochondrial-targeting, we measured the octanol/aqueous buffer partition coefficient (log P) for our TPP constructs and two MitoTracker dyes. We then tabulated the log P, charge of the predominate species in solution at physiological pH, and cellular localization for each dye (Table 1). […] Along with cationic charge, a minimum level of lipophilicity must be reached in order to evade endo/lysosomal sequestration and enable effective mitochondrial targeting.

porcine liver esterase = assay: Deacetylation by porcine liver esterase (UV-vis absorbance); type: in vitro ADME; details: analogous conditions, porcine liver esterase
Procedure: (§1) FIG. 23 depicts kinetic traces for the deacetylation of DA-ZP1-TPP. The half-life for deacetylation of a 2.75 μM solution of DA-ZP1-TPP, at 37° C. in 50 mM PIPES buffer (pH 7) and 100 mM KCl, was measured in the presence of 125 μM ZnCl2 (+Zn), 250 μM EDTA (−Zn), or 1.25 units of porcine liver esterase (Esterase). The change in absorbance at 520 nm (EDTA and esterase) or 510 nm (ZnCl2) was used to monitor the reaction.
DA-ZP1-TPP has a zinc-induced fluorescence response and is relatively stable to uncatalyzed hydrolysis and esterase activity. […] Other late 3d-block transition metal ions, such as Co(II) and Cu(II), can coordinate to DA-ZP1-TPP but are generally not available in appreciable chelatable quantities within the cell. In addition to monitoring selectivity in the fluorescence response, we used UV-vis spectroscopy to investigate the rate and zinc-specificity of metal-mediated ester hydrolysis. DA-ZP1-TPP deacetylation results in opening of the lactone ring and restoration of conjugation across the xanthene ring. By monitoring the absorbance of the xanthene it system, we could interrogate deacetylation kinetics in a manner that is independent of the fluorescence response. […] To determine whether ester hydrolysis depends on the metal-binding core of DA-ZP1-TPP, we measured the deacetylation kinetics of fluorescein diacetate (DA-FL) under analogous conditions. […]

[3] = Deacetylation kinetics monitored by UV-vis absorbance (metal-mediated and uncatalyzed hydrolysis); type: physicochemical; details: analogous conditions, EDTA or ZnCl2
Procedure: as §1
FIG. 26 depicts in vitro characterization of DA-ZP1-A3. (a) UV-vis and (b) fluorescence spectra of a 5 μM solution of DA-ZP1-A3 in buffer (50 mM PIPES, 100 mM KCl; pH 7). Spectra were acquired initially, upon addition of 100 μM ZnCl2, and again after addition of 200 μM EDTA. (c) Time-dependent change in the normalized absorbance of a ca. 5 μM solution DA-ZP1-A3 at 37° C. in buffer (50 mM PIPES, 100 mM KCl; pH 7) in the presence of 100 μM ZnCl2 (λabs=510 nm) or EDTA (λabs=520 nm). (d) Integrated fluorescence intensity of a 1 μM solution of ZP1-A3 (circles) or DA-ZP1-A3 (squares) as a function of pH. […]
DA-ZP1-TPP has a zinc-induced fluorescence response and is relatively stable to uncatalyzed hydrolysis and esterase activity. […] Other late 3d-block transition metal ions, such as Co(II) and Cu(II), can coordinate to DA-ZP1-TPP but are generally not available in appreciable chelatable quantities within the cell. […]

Structure (SMILES)	Charge of the predominate species in solution [1]	Localization (HeLa cells)	log P [2]	response to esterase (deacetylation) (porcine liver esterase)	stability to hydrolysis and zinc-mediated deacetylation [3]	logP ([2]; octanol/aqueous buffer)
O=C(NCC[P+](c1ccccc1)(c1ccccc1)c1ccccc1)c1cc2cc3c4c(c2oc1=O)CCCN4CCC3 [C343-TPP]	+1	Mitochondria	0.72 ± 0.05	–	–	–
CC(=O)Oc1ccc2c(c1)Oc1cc(OC(C)=O)ccc1C21OC(=O)c2ccccc21 [DA-FL, fluorescein diacetate, reference compound]	–	–	–	responds rapidly to esterase	relatively stable to hydrolysis and zinc-mediated deacetylation	–
CN1/C(=C/C=C/c2n(Cc3ccc(CCl)cc3)c3cc(Cl)c(Cl)cc3[n+]2Cc2ccc(CCl)cc2)Oc2ccccc21 [Mitotracker Green, reference compound]	+1	Mitochondria	–	–	–	0.56 ± 0.02
ClCc1ccc(C2=c3cc4c5c(c3Oc3c2cc2c6c3CCCN6CCC2)CCC[N+]=5CCC4)cc1.[Cl-] [Mitotracker Red, reference compound]	+1	Mitochondria	1.15 ± 0.04	–	–	–
